Data set [1] deals with Candida albicans. In words: Antifungal activity against Candida albicans MY1055 after 24 hrs by liquid microdilution assay in presence of human serum. In kind it is functional. The settings on record: MY1055, 24 h.
For data set [2], the system named is Aspergillus fumigatus. Kind of data set: Antifungal activity against Aspergillus fumigatus MF5668 after 24 hrs by liquid microdilution assay. The data set is classed as functional. The settings on record: MF5668, 24 h, read-out: MEC. A general note: In broth dilution the organism is exposed to a series of concentrations in liquid medium.
Data set [3] addresses T1, Beta-1,3-glucan synthase (Candida albicans, UniProt O13383).
T1 sequence (O13383 whole entry): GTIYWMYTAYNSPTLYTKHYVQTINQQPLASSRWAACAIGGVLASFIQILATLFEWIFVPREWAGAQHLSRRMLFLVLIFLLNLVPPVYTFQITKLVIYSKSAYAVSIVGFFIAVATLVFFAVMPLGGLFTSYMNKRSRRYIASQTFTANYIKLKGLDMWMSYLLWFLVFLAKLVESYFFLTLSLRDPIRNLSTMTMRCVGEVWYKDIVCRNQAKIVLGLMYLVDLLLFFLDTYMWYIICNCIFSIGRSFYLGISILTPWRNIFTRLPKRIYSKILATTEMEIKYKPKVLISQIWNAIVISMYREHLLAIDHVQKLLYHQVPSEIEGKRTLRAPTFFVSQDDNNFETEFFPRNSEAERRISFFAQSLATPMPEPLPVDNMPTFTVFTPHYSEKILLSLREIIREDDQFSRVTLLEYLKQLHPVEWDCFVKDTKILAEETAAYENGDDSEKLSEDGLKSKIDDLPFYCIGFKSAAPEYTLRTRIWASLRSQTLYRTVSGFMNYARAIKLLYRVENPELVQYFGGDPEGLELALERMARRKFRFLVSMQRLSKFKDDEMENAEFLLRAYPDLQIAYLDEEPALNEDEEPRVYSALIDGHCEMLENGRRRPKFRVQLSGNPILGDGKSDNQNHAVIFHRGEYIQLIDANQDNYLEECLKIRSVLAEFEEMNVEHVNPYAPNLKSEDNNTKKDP
Kind of data set: Displacement of UDP-[3H]glucose from beta-1,3-glucan synthase in Candida albicans MY1055 microsomal membranes incubated for 2 hrs.

Data set [4] concerns Candida albicans. In words: Antifungal activity against Candida albicans MY1055 after 24 hrs by liquid microdilution assay. The data set is classed as functional. The settings on record: MY1055, 24 h.
Data set [5] can be described thus: Oral bioavailability in mouse. The data set is classed as ADME, organism-based. The following applies: in vivo.
Data set [6] has as its system Candida albicans. Kind of data set: Antifungal activity against Candida albicans MY1055 in DBA/2 mouse candidiasis model assessed as change in CFU per gram of kidney at 25 mg/kg, po bid after 4 days by Target Organ Kidney Assay relative to sham treated control. In kind it is functional.
Data set [7] relates to Mus musculus. Kind of data set: Dose normalized AUC in orally dosed mouse. The following applies: in vivo, po. The data set is classed as ADME, organism-based.
The test system of data set [8] is Candida albicans. In words: Antifungal activity against Candida albicans MY1055 in DBA/2 mouse candidiasis model assessed as change in CFU per gram of kidney at 6.25 mg/kg, po bid after 4 days by Target Organ Kidney Assay relative to sham treated control. The data set is classed as functional.
Data set [9] concerns Candida albicans. Kind of data set: Antifungal activity against Candida albicans MY1055 in DBA/2 mouse candidiasis model assessed as change in CFU per gram of kidney at 12.5 mg/kg, po bid after 4 days by Target Organ Kidney Assay relative to sham treated control. The data set is classed as functional.

Values after ≈ are worked out from the molar mass of the structure shown. Some results are limits rather than exact numbers.

Usually MIC stands for the lowest concentration that inhibits growth of the organism. For orientation: IC50 means the point on the concentration scale where inhibition reaches its midpoint. Low values mean greater potency in that assay, high ones weaker potency in that assay. Turning to `CC(C)[C@@H](C)[C@@]1(C)CC[C@]2(C)[C@H]3CC[C@H]4C5(C)COC[C@@]4(C[C@@H](n4cc6ccccc6n4)[C@@H]5O[C@@H]4O[C@H](CO)[C@@H](O)[C@H](O)[C@H]4O)C3=CC[C@@]2(C)[C@@H]1C(=O)O`, the MIC in data set [1] is over 32 µg/mL; in data set [4], 32 µg/mL (≈ 42.6 µM). Further, the minimal effective concentration in [2] stood at 2 µg/mL. In data set [3], this compound gave a half-maximal inhibitory concentration (IC50) of 1200 nM.
For orientation: bioavailability means the share of a dose that reaches the circulation, judged against a reference dose that is usually intravenous. High values mean much systemic uptake, low ones little systemic uptake. Take `CC(=O)O[C@@H]1C[C@@]23COCC(C)([C@H]1OCC(C)(C)N)[C@@H]2CC[C@H]1C3=CC[C@@]2(C)[C@H](C(=O)O)[C@@](C)([C@H](C)C(C)C)CC[C@]12C`: the minimal inhibitory concentration (MIC) in [1] is 32 µg/mL; in data set [4], 1 µg/mL (≈ 1.66 µM). Further, in [5], the bioavailability is 37%. Besides, the minimal effective concentration in [2] is under 0.03 µg/mL. Also, the Activity in [6] is on record as -1.4 deltalog10CFU. The IC50 in data set [3] is 74.8 nM. The compound further displayed an AUC/dose in data set [7] of 1.22 µM·kg·h/mg.
As to `CC(=O)Nc1nnn([C@@H]2C[C@@]34COCC(C)([C@H]2OC[C@](C)(N)C(C)C)[C@@H]3CC[C@H]2C4=CC[C@@]3(C)[C@H](C(=O)O)[C@@](C)([C@H](C)C(C)C)CC[C@]23C)n1`, the MIC in [1] amounted to 16 µg/mL; in data set [4] it was 0.25 µg/mL (≈ 0.359 µM). Besides, the minimal effective concentration in data set [2] was under 0.03 µg/mL. The compound further had an IC50 in data set [3] of 86.1 nM.
On the same counts, the results for `CC(C)[C@@H](C)[C@@]1(C)CC[C@]2(C)[C@H]3CC[C@H]4C5(C)COC[C@@]4(C[C@@H](n4ccnn4)[C@@H]5O[C@@H]4O[C@H](CO)[C@@H](O)[C@H](O)[C@H]4O)C3=CC[C@@]2(C)[C@@H]1C(=O)O` are over 32 µg/mL, over 32 µg/mL, 2 µg/mL and over 14200 nM.
Turning to `COc1ccc([C@@H]2C[C@@]34COCC(C)([C@H]2O[C@@H]2O[C@H](CO)[C@@H](O)[C@H](O)[C@H]2O)[C@@H]3CC[C@H]2C4=CC[C@@]3(C)[C@H](C(=O)O)[C@@](C)([C@H](C)C(C)C)CC[C@]23C)cc1`, the MIC in data set [1] is over 32 µg/mL; in data set [4], 2 µg/mL (≈ 2.7 µM). Besides, the minimal effective concentration in data set [2] turned out to be 0.25 µg/mL. In addition, the IC50 in [3] is 634 nM.
On to `CC(C)[C@@H](C)[C@@]1(C)CC[C@]2(C)[C@H]3CC[C@H]4C5(C)COC[C@@]4(C[C@@H](Oc4ccccc4)[C@@H]5O[C@@H]4O[C@H](CO)[C@@H](O)[C@H](O)[C@H]4O)C3=CC[C@@]2(C)[C@@H]1C(=O)O`, for which the MIC in data set [1] is 32 µg/mL; in [4], 2 µg/mL (≈ 2.75 µM). The minimal effective concentration in data set [2] turned out to be 0.125 µg/mL. Further, in [3], the IC50 was 578 nM.
On the same counts, the results for `CC(C)[C@@H](C)[C@@]1(C)CC[C@]2(C)[C@H]3CC[C@H]4C5(C)COC[C@@]4(C[C@@H](n4cncn4)[C@@H]5O[C@@H]4O[C@H](CO)[C@@H](O)[C@H](O)[C@H]4O)C3=CC[C@@]2(C)[C@@H]1C(=O)O` are 32 µg/mL, 2 µg/mL (≈ 2.85 µM), 0.125 µg/mL and 342 nM.
For `CC(C)[C@@H](C)[C@@]1(C)CC[C@]2(C)[C@H]3CC[C@H]4C5(C)COC[C@@]4(C[C@@H](n4ccc6ccccc64)[C@@H]5O[C@@H]4O[C@H](CO)[C@@H](O)[C@H](O)[C@H]4O)C3=CC[C@@]2(C)[C@@H]1C(=O)O`, in that order: over 32 µg/mL, over 32 µg/mL, 4 µg/mL and 1410 nM.
For `CC(C)[C@@H](C)[C@@]1(C)CC[C@]2(C)[C@H]3CC[C@H]4C5(C)COC[C@@]4(C[C@@H](n4nccn4)[C@@H]5O[C@@H]4O[C@H](CO)[C@@H](O)[C@H](O)[C@H]4O)C3=CC[C@@]2(C)[C@@H]1C(=O)O`, in that order: over 32 µg/mL, over 32 µg/mL, 0.5 µg/mL and 1410 nM.
On to `CC(=O)Nc1nnnn1[C@@H]1C[C@@]23COCC(C)([C@H]1OC[C@](C)(N)C(C)C)[C@@H]2CC[C@H]1C3=CC[C@@]2(C)[C@H](C(=O)O)[C@@](C)([C@H](C)C(C)C)CC[C@]12C`, for which the figures for the MIC in data set [1] and in [4] were over 32 µg/mL and 8 µg/mL (≈ 11.5 µM), respectively. Further, the minimal effective concentration in data set [2] was under 0.03 µg/mL. The compound further showed an IC50 in data set [3] of 81.8 nM.
Take `Cc1nnn([C@@H]2C[C@@]34COCC(C)([C@H]2OC[C@](C)(N)C(C)C)[C@@H]3CC[C@H]2C4=CC[C@@]3(C)[C@H](C(=O)O)[C@@](C)([C@H](C)C(C)C)CC[C@]23C)n1`: the MIC was over 32 µg/mL in data set [1] and 1 µg/mL (≈ 1.53 µM) in data set [4]. Besides, the minimal effective concentration in data set [2] came out at 0.5 µg/mL. For the same compound, in data set [3], the IC50 is 24.5 nM.
As to `Cc1nnnn1[C@@H]1C[C@@]23COCC(C)([C@H]1OC[C@](C)(N)C(C)C)[C@@H]2CC[C@H]1C3=CC[C@@]2(C)[C@H](C(=O)O)[C@@](C)([C@H](C)C(C)C)CC[C@]12C`, the MIC is over 32 µg/mL in data set [1] and 8 µg/mL (≈ 12.2 µM) in data set [4]. The minimal effective concentration in [2] is 4 µg/mL. The compound also showed an IC50 in data set [3] of 71.9 nM.
On the same counts, the results for `CC(C)[C@@H](C)[C@@]1(C)CC[C@]2(C)[C@H]3CC[C@H]4C5(C)COC[C@@]4(C[C@@H](n4cccn4)[C@@H]5O[C@@H]4O[C@H](CO)[C@@H](O)[C@H](O)[C@H]4O)C3=CC[C@@]2(C)[C@@H]1C(=O)O` are over 32 µg/mL, 2 µg/mL (≈ 2.85 µM), 0.06 µg/mL and 813 nM.
For `CC(C)[C@@H](C)[C@@]1(C)CC[C@]2(C)[C@H]3CC[C@H]4C5(C)COC[C@@]4(C[C@@H](n4ncc6ccccc64)[C@@H]5O[C@@H]4O[C@H](CO)[C@@H](O)[C@H](O)[C@H]4O)C3=CC[C@@]2(C)[C@@H]1C(=O)O`, in that order: over 32 µg/mL, 32 µg/mL (≈ 42.6 µM), 8 µg/mL and over 1330 nM.
Take `CC(=O)O[C@@H]1C[C@@]23COCC(C)([C@H]1OC[C@@](C)(N)C(C)C)[C@@H]2CC[C@H]1C3=CC[C@@]2(C)[C@H](C(=O)O)[C@@](C)([C@H](C)C(C)C)CC[C@]12C`: the MIC came to 16 µg/mL in data set [1] and 0.25 µg/mL (≈ 0.397 µM) in [4]. For the same compound, the bioavailability in data set [5] stood at 31%. Also, the minimal effective concentration in data set [2] is under 0.03 µg/mL. Besides, the values for the Activity in [6], in [8] and in [9] were -1.9 deltalog10CFU, -0.5 deltalog10CFU and -0.1 deltalog10CFU, respectively. Also, the IC50 in data set [3] is 22.2 nM. For the same compound, the AUC/dose in data set [7] was found to be 0.73 µM·kg·h/mg.
Consider `CC(C)[C@@H](C)[C@@]1(C)CC[C@]2(C)[C@H]3CC[C@H]4C5(C)COC[C@@]4(C[C@@H](n4cnnc4)[C@@H]5O[C@@H]4O[C@H](CO)[C@@H](O)[C@H](O)[C@H]4O)C3=CC[C@@]2(C)[C@@H]1C(=O)O`, for which the figures for the MIC in data set [1] and in [4] were over 32 µg/mL and 4 µg/mL (≈ 5.7 µM), respectively. Also, the minimal effective concentration in data set [2] is 1 µg/mL.
As for `CC(C)[C@@H](C)[C@@]1(C)CC[C@]2(C)[C@H]3CC[C@H]4C5(C)COC[C@@]4(C[C@@H](n4nnnc4N)[C@@H]5OC[C@](C)(N)C(C)C)C3=CC[C@@]2(C)[C@@H]1C(=O)O`, the MIC was over 32 µg/mL in data set [1] and 4 µg/mL (≈ 6.11 µM) in data set [4]. Also, in data set [2], the minimal effective concentration was found to be 0.25 µg/mL. In data set [3], the 50% inhibitory concentration (IC50) was 56.5 nM.

Values taken from ChEMBL document CHEMBL3739316, “Novel orally active inhibitors of β-1,3-glucan synthesis derived from enfumafungin” (Bioorg Med Chem Lett, 2015).
